Data published in US8980899B2, “Methods of inhibiting Ire1” (The Regents of the University of California, priority 2009, dated 2015).

Columns and labels:
[1] = test system: Ire1 (XBP-1 YFP reporter in IMR90 cells); assay: Cell-based IRE1 inhibition assay with human fibroblasts (IMR90), XBP-1 YFP reporter; details: compound 2 uM, 8 hrs
Experimental: FIG. 6 depicts histogram results of cell-based Ire1 inhibition assay employing IMR90 human diploid fibroblastic cell line. […] Induction of XBP-1 YFP reporter was assayed by fluorescence microscopy. See Example 6. Test compounds (left to right): DMSO; Tg; bortezomib; MG132; Irestatin; AD71c; AD73c; AD58; AD59. Ordinate: relative fluorescence (proportional to Ire1 activity.)
A cell-based assay of Ire1 inhibition was conducted on human diploid fibroblastic cells (IMR90) expressing an XBP-1 YFP (yellow fluorescent protein) reporter. The effect of test compound or control on UPR induction was assayed by fluorescence microscopy to measure the fluorescence of YFP expressed in a Ire1-dependent manner. The XBP1-YFP reporter only produces YFP after a frameshift produced by splicing of its intron by activated IRE1. As known in the art, higher fluorescence intensity means higher Ire1 and UPR activity. Conversely, lower fluorescence intensity means inhibitions of Ire1 and UPR.
IMR90 stable retroviral transductants expressing an XBP-1 YTP reporter were plated in a 96 well clear bottom plate and allowed to recover overnight (80% confluency). […] Induction of the XBP1-YFP reported was assayed by fluorescence microscopy (GE Healthcare IN Cell Analyzer 2000). The number of YFP cells and the total number of cells, as judged by nuclear staining (Hoechst) were counted in each well. […]

yIre1 = biological target: T1, yIre1 (Saccharomyces cerevisiae, UniProt P32361); assay: RNase cleavage assay (yIre1 activation); type: biochemical, yeast; details: yIre1 RNA cleavage, 30° C., 2 mM ADP; Control (no inhibitor) 0.000504
T1 sequence (P32361 19-1115): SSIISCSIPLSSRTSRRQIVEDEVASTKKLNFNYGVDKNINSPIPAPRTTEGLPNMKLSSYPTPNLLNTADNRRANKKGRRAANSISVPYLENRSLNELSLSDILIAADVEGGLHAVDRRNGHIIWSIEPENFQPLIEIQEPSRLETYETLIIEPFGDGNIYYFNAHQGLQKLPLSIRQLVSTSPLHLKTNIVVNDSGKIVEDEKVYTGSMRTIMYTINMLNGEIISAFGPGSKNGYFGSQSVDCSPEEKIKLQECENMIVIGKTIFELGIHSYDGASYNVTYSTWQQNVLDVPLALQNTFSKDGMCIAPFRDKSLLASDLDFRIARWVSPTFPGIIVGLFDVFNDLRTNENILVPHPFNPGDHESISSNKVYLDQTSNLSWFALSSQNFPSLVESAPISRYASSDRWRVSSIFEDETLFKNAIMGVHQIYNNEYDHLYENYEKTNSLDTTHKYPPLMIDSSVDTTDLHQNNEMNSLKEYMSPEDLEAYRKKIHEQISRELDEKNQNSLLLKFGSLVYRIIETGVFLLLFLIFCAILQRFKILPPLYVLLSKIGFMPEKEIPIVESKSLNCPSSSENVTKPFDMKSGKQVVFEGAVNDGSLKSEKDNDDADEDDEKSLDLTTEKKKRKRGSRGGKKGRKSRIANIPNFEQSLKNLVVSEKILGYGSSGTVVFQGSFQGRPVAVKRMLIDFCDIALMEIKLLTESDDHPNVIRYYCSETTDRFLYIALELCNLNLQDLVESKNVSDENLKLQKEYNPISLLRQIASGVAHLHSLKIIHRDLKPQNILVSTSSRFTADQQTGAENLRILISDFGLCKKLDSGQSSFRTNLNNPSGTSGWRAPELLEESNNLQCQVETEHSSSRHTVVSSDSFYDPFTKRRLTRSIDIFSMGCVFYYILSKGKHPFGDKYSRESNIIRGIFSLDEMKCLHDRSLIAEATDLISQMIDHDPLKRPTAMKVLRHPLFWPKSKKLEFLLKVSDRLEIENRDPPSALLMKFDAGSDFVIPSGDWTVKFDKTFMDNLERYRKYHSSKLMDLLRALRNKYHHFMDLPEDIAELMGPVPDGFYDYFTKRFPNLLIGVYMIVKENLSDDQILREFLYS
Experimental: RNA cleavage reactions were conducted at 30° C. in buffer containing 20 mM HEPES (pH 7.5), 70 mM NaCl, 2 mM ADP (pH 7.0), 2 mM Mg(OAc)2, 5 mM DTT, 5% glycerol, less than 1 nM ^32p-labeled RNA substrate, and 3 nM-[…] Ire1. Reaction solutions and buffers were designed using Biochem Lab Solutions 3.5. Reactions were prepared such that 1 μl of RNA was added to 9 μl of pre-warmed reaction mixture containing all components except RNA. Typically, 3-10 minute time courses were collected starting from 5 seconds for the first time point. At time intervals, 1 μl of solution was withdrawn from each reaction and mixed with 6 μl stop solution containing 10 M urea, 0.1% SDS, 0.1 mM EDTA, 0.05% xylene cyanol, and 0.05% bromophenol blue. The samples were separated by a denaturing 10% PAGE and exposed on a phosphor storage screen. The screens were scanned on a Storm or a Typhoon instrument and quantified using ImageQuant 5.0 or GelQuant.NET 1.4 programs. The data were plotted and fit in SigmaPlot 6.0.

hIre1 = hIre1 (Homo sapiens, UniProt O75460); assay: Titrations of Ire1 inhibitors to measure Ki using 1 μM hIre1; type: biochemical; details: 1 μM hIre1, 5′-32p-HP21, 30° C.
Chain of hIre1 (O75460 19-977): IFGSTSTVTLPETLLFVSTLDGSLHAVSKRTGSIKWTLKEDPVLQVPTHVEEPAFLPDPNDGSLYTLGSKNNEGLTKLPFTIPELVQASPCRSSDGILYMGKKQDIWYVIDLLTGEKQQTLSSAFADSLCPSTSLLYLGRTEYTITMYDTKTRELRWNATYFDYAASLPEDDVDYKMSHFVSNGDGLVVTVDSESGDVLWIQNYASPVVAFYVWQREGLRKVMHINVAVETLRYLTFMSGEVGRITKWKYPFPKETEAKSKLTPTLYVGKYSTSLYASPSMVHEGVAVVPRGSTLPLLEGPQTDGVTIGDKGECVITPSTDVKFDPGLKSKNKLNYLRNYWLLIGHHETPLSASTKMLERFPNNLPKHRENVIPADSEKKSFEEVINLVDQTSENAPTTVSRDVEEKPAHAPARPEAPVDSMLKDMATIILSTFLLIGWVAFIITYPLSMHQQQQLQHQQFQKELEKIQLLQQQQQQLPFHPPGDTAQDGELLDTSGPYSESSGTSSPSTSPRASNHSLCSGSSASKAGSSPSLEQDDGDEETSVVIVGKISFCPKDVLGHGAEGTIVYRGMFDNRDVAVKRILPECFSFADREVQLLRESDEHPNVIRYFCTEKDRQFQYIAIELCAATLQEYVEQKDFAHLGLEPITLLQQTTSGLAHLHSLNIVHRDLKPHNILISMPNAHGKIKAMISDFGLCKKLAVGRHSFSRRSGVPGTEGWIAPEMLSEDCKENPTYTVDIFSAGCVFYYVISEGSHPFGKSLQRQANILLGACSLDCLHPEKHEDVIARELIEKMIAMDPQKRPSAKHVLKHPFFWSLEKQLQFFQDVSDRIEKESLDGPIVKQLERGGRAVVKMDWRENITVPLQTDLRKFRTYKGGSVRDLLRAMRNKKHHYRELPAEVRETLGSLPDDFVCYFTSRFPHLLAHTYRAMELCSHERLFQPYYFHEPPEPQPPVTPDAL
Experimental: Recombinant human Ire1-alpha (1 μM f/c) was mixed with reaction buffer, inhibitor solution in DMSO, and ^32P-labeled RNA substrate having sequence 5′-UGCACCUCUGCAGCAGGUGCA (SEQ ID NO:1). Reactions were conducted at 30° C. and initiated by adding the RNA to reaction pre-mix containing all the components minus the RNA. The final reaction contained: 20 mM HEPES pH 7, 70 mM NaCl, 2 mM MgCl2, 5% glycerol, 4 mM DTT, 10% DMSO, 1 μM Ire1 and <1 nM 32P-labeled RNA. (The reaction mixture may be modified by using different components or concentrations, different RNA substrate, or different Ire1 protein construct.)
At time intervals (0 seconds, ˜10 seconds, ˜30 seconds, and ˜3 minutes), 1 μl aliquots of reaction mixture were taken and quenched in 10 M Urea, 0.1% SDS. Samples were analyzed by denaturing polyacrylamide gel electrophoresis and quantified using Typhoon phosphorImager.
Inhibition was measured by the extent of RNA cleavage slowdown in the presence of inhibitor (0.3-100 μM) compared to reaction containing no inhibitors.

[2] = biological target: Recombinant human Ire1-alpha (Homo sapiens, UniProt O75460); assay: In vitro inhibition assay, cleavage of 32P-stem-loop RNA by human Ire1; type: biochemical; details: in vitro cleavage of 32P-stem-loop RNA by human Ire1, AD series; Control (no inhibitor) 8.8310e−3
Chain of Recombinant human Ire1-alpha (O75460 19-977): as the sequence (O75460 19-977) above
Experimental: Recombinant human […]) was mixed with reaction buffer, inhibitor solution in DMSO, and ^32P-labeled RNA substrate having sequence 5'-[…] NO:1). Reactions were conducted at 30° C. and initiated by adding the RNA to reaction pre-mix containing all the components minus the RNA. […] (The reaction mixture may be modified by using different components or concentrations, different RNA substrate, or different Ire1 protein construct.) At time intervals (0 seconds, 10 seconds, 30 seconds, and 3 minutes), 1 μl aliquots of reaction mixture were taken and quenched in 10 M Urea, 0.1% SDS. Samples were analyzed by denaturing polyacrylamide gel electrophoresis and quantified using Typhoon phosphorImager. […] Reactions with Irestatin and exemplary compounds were conducted analogously. Irestatin was a gift obtained from the SPECS screen available as 5 mM solution in DMSO at UCSF small molecule discovery center.

[3] = test system: Ire1 (XBP-1 luciferase reporter in MEFS); assay: Cell-based IRE1 inhibition assay with mouse embryonic fibroblasts, XBP-1 luciferase reporter; details: compound 5 uM, 8 hrs
Experimental: FIG. 5 depicts histogram results of cell-based Ire1 inhibition assay in mouse embryonic fibroblasts (MEFS). Primary MEFS isolated from a transgenic mouse expressing an XBP1 luciferase reporter were incubated with either thapsigargin (Tg) or tunicamycin (Tm) in the absence or presence of test compound or control. See Example 5. Treatment order in histogram (left to right): no compound, AD73c at 5 uM, mitoxan (10 uM). Incubation conditions (left to right): DMSO, Tg (600 nM), Tm (2.6 ug/mL). Legend: RL: relative luminosity (arbitrary units); DMSO (no fill); Tg (diagonal stripe); Mitoxan (diamond fill).
A cell-based assay of Ire1 inhibition was conducted on mouse embryonic fibroblasts (MEFS) isolated from a transgenic mouse expressing an XBP-1 luciferase reporter (Riken Research, Japan). The XBP-1 luciferase reporter produces a frameshift and production of luciferase only after splicing of the intron by activated IRE1. […]
Primary MEFs expressing an XBP1 luciferase reporter were plated in a 96 well white plate and allowed to recover overnight (80% confluency). […] Luciferase activity was measured by the additional of 50 uL of One-Glo™ Luciferase Assay System (Promega), and the relative luminescence was quantitated using a luminometer (Analyst).
As depicted in the histogram of FIG. 5, the luminescence of luciferase expressed in Ire1-dependent assay was measured to assess Ire1 and UPR activity. […]

| Ire1 activity (yIre1) | Ki (hIre1) | Ire1 activity [2] | rate suppression (hIre1) | SMILES | inhibition of UPR (XBP-1 YFP reporter) induced by Tg [1] | inhibition of XBP1 luciferase induction by thapsigargin (Tg) ([3]; Tg 600 nM) | inhibition of XBP1 luciferase induction by tunicamycin (Tm) ([3]; Tm 2.5 ug/mL) |
| --- | --- | --- | --- | --- | --- | --- | --- |
|  |  |  |  | CC(C)n1nc(-c2ccc(NC(=O)Nc3ccccc3)cc2)c2c(N)ncnc21 [AD58] | inhibit UPR |  |  |
| 0.0001 | ~1 µM | 3.0550e−3 |  | Cn1nc(-c2ccc(NC(=O)Nc3cccc(C(F)(F)F)c3)cc2)c2c(N)ncnc21 [AD59, 1-(4-(4-amino-1-methyl-1H-pyrazolo[3,4-d]pyrimidin-3-yl)phenyl)-3-(3-(trifluoromethyl)phenyl)urea] | even more strongly |  |  |
|  |  | 2.9310e−4 | 100 fold | Nc1ncnc2c1c(-c1ccc(NC(=O)Nc3cccc(C(F)(F)F)c3)cc1)nn2[C@@H]1CCN(C(=O)Nc2cccc(C(F)(F)F)c2)C1 [AD73c] |  | strongly inhibit | strongly inhibit |
